In patent publication US8889874B2, “Imidazolone-chalcone derivatives as potential anticancer agent and process for the preparation thereof” (Council of Scientific and Industrial Research, priority 2010, dated 2014):
Where two headings read alike, the source gives them in different places.

Legend:
Assay type in all cases: cell-based, human
HCT-15 (colon) = assay: NCI anticancer screen, SRB assay, 48 h; conditions: Homo sapiens
In short: (§1)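 Compounds were tested across fifty three human cancer cell lines from nine tumour types. Each line got a dose-response curve of at least five concentrations at 10-fold dilutions, with continuous drug exposure and sulforhodamine B protein staining to estimate viability or growth.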

TD-47D (breast) = assay: NCI anticancer screen, SRB assay, 48 h; conditions: Homo sapiens
In short: as §1

[1] = system: HOP-92 (non-small cell lung); assay: NCI anticancer screen, SRB assay, 48 h; conditions: Homo sapiens
In short: as §1

[2] = system: K-562 (leukemia cell line); assay: NCI anticancer screen, SRB assay, 48 h; conditions: Homo sapiens
In short: as §1

[3] = system: NCI-H460 (non-small cell lung); assay: NCI anticancer screen, SRB assay, 48 h; conditions: Homo sapiens
In short: as §1

MDA-MB-435 (melanoma) = assay: NCI anticancer screen, SRB assay, 48 h; conditions: Homo sapiens
In short: as §1

SNB-75 (CNS) = assay: NCI anticancer screen, SRB assay, 48 h; conditions: Homo sapiens
In short: as §1

MDA-MB-231/ATCC (breast) = assay: NCI anticancer screen, SRB assay, 48 h; conditions: Homo sapiens
In short: as §1

A498 (renal) = assay: NCI anticancer screen, SRB assay, 48 h; conditions: Homo sapiens
In short: as §1

[4] = system: NCI-H23 (non-small cell lung); assay: NCI anticancer screen, SRB assay, 48 h; conditions: Homo sapiens
In short: as §1

HS 578T (breast) = assay: NCI anticancer screen, SRB assay, 48 h; conditions: Homo sapiens
In short: as §1

HCT-116 (colon) = assay: NCI anticancer screen, SRB assay, 48 h; conditions: Homo sapiens
In short: as §1

OVCAR-4 (ovarian) = assay: NCI anticancer screen, SRB assay, 48 h; conditions: Homo sapiens
In short: as §1

HCC-2998 (colon) = assay: NCI anticancer screen, SRB assay, 48 h; conditions: Homo sapiens
In short: as §1

SK-MEL-28 (melanoma) = assay: NCI anticancer screen, SRB assay, 48 h; conditions: Homo sapiens
In short: as §1

[5] = system: HOP-62 (non-small cell lung); assay: NCI anticancer screen, SRB assay, 48 h; conditions: Homo sapiens
In short: as §1

UO-31 (renal) = assay: NCI anticancer screen, SRB assay, 48 h; conditions: Homo sapiens
In short: as §1

[6] = system: Melanoma cancer cell lines; assay: NCI anticancer screen, SRB assay, panel summary; conditions: for GI50: Homo sapiens
Protocol: (§2) Some of biological activity studies were carried out at the National Cancer Institute (NCI), Maryland, USA.
(§3) The compounds were evaluated for anticancer activity against fifty three human cancer cells derived from nine cancer types (leukemia cell line, non-small-cell lung cell line, colon cell line, CNS cell line, melanoma cell line, ovarian cell line, prostate cell line, and breast cancer cell line) as shown in Table 1. For each compound, dose response curves for each cell line were measured at a minimum of five concentrations at 10 fold dilutions. A protocol of 48 h continuous drug exposure was used and a sulforhodamine B (SRB) protein assay was used to estimate cell viability or growth.

Renal cancer cell lines = assay: NCI anticancer screen, SRB assay, panel summary; conditions: Homo sapiens
Protocol: as §2, §3

Breast cancer cell lines = assay: NCI anticancer screen, SRB assay, panel summary; conditions: Homo sapiens
Protocol: as §2, §3

CNS cancer cell lines = assay: NCI anticancer screen, SRB assay, panel summary; conditions: for GI50: Homo sapiens
Protocol: as §2, §3

[7] = system: Non-small cell lung cancer cell lines; assay: NCI anticancer screen, SRB assay, panel summary; conditions: Homo sapiens
Protocol: as §2, §3

Colon cancer cell lines = assay: NCI anticancer screen, SRB assay, panel summary; conditions: for GI50: Homo sapiens
Protocol: as §2, §3

[8] = system: Ovarian cancer cell lines; assay: NCI anticancer screen, SRB assay, panel summary; conditions: Homo sapiens
Protocol: as §2, §3

[9] = system: Leukemia cancer cell lines; assay: NCI anticancer screen, SRB assay, panel summary; conditions: Homo sapiens
Protocol: as §2, §3

[10] = 48 h exposure, SRB, read-out: GI50
[11] = read-out: pGI50 (-log of molar concentration causing 50% inhibition of net cell growth) (converted)

O=C(/C=C/c1cccc(O)c1)c1cccc(-n2cc(-c3ccc(Cl)cc3)[nH]c2=O)c1 [4f, 4-(4-chlorophenyl)-1-3-[(E)-3-(3-hydroxyphenyl)-2-propenoyl]phenyl-2,3-dihydro-1H-2-imidazolone]
GI50 (HCT-15 (colon); [10]): 2.33 µM
GI50 (HCT-15 (colon); [11]): 2.34 µM
GI50 (TD-47D (breast); [10]): 1.92 µM
GI50 (TD-47D (breast); [11]): 1.91 µM
GI50 [1, 10]: 1.6 µM
GI50 [1, 11]: 1.58 µM
GI50 ([2]; K562, 48 h exposure, SRB, read-out: GI50): 0.4 µM
GI50 ([2]; K562, read-out: pGI50 (-log of molar concentration causing 50% inhibition of net cell growth) (converted)): 0.398 µM
GI50 [3, 10]: 2.41 µM
GI50 [3, 11]: 2.4 µM
GI50 (MDA-MB-435 (melanoma); [10]): 2.06 µM
GI50 (MDA-MB-435 (melanoma); [11]): 2.04 µM
GI50 (SNB-75 (CNS); [10]): 1.46 µM
GI50 (SNB-75 (CNS); [11]): 1.45 µM
GI50 (MDA-MB-231/ATCC (breast); [10]): 3.35 µM
GI50 (MDA-MB-231/ATCC (breast); [11]): 3.39 µM
GI50 (A498 (renal); [10]): 3.71 µM
GI50 (A498 (renal); [11]): 3.72 µM
GI50 [4, 10]: 2.78 µM
GI50 [4, 11]: 2.75 µM
GI50 (HS 578T (breast); [10]): 4 µM
GI50 (HS 578T (breast); [11]): 3.98 µM
GI50 (HCT-116 (colon); [10]): 1.23 µM
GI50 (HCT-116 (colon); [11]): 1.23 µM
GI50 (OVCAR-4 (ovarian); [10]): 2.21 µM
GI50 (OVCAR-4 (ovarian); [11]): 2.19 µM
GI50 (HCC-2998 (colon); [10]): 13.7 µM
GI50 (HCC-2998 (colon); [11]): 13.8 µM
GI50 (SK-MEL-28 (melanoma); [10]): 3.64 µM
GI50 (SK-MEL-28 (melanoma); [11]): 3.63 µM
GI50 [5, 10]: 2.36 µM
GI50 [5, 11]: 2.34 µM
GI50 (UO-31 (renal); [10]): 0.55 µM
GI50 (UO-31 (renal); [11]): 0.55 µM
GI50 ([6]; Melanoma panel, log of concentration in mol/L causing 50% inhibition of net cell growth, read-out: mean graph midpoint (MG_MID) of Log10 GI50 (converted)): 2.19 µM
GI50 ([6]; nine melanoma cancer cell lines, exposure at least 48 hrs, read-out: GI50, range over the panel): 1.53 to 4.07 µM
mean graph midpoint (MG_MID) of Log10 LC50 ([6]; Melanoma panel, log of concentration leading to 50% net cell death): 4.55
GI50 (Renal cancer cell lines; Renal panel, log of concentration in mol/L causing 50% inhibition of net cell growth, read-out: mean graph midpoint (MG_MID) of Log10 GI50 (converted)): 1.78 µM
LC50 (Renal cancer cell lines; Renal panel, log of concentration leading to 50% net cell death, read-out: mean graph midpoint (MG_MID) of Log10 LC50 (converted)): 27.5 µM
GI50 (Renal cancer cell lines; eight renal cancer cell lines, exposure at least 48 hrs, read-out: GI50, range over the panel): 0.55 to 3.71 µM
GI50 (Breast cancer cell lines; Breast panel, log of concentration in mol/L causing 50% inhibition of net cell growth, read-out: mean graph midpoint (MG_MID) of Log10 GI50 (converted)): 2.19 µM
LC50 (Breast cancer cell lines; Breast panel, log of concentration leading to 50% net cell death, read-out: mean graph midpoint (MG_MID) of Log10 LC50 (converted)): 63.1 µM
GI50 (Breast cancer cell lines; five breast cancer cell lines, exposure at least 48 hrs, read-out: GI50, range over the panel): 1.29 to 4 µM
mean graph midpoint (MG_MID) of Log10 LC50 (CNS cancer cell lines; CNS panel, log of concentration leading to 50% net cell death): 4.87
GI50 (CNS cancer cell lines; CNS panel, log of concentration in mol/L causing 50% inhibition of net cell growth, read-out: mean graph midpoint (MG_MID) of Log10 GI50 (converted)): 1.45 µM
GI50 (CNS cancer cell lines; six CNS cancer cell lines, exposure at least 48 hrs, read-out: GI50, range over the panel): 0.58 to 1.92 µM
GI50 ([7]; Non-small cell lung panel, log of concentration in mol/L causing 50% inhibition of net cell growth, read-out: mean graph midpoint (MG_MID) of Log10 GI50 (converted)): 2.34 µM
LC50 ([7]; Non-small cell lung panel, log of concentration leading to 50% net cell death, read-out: mean graph midpoint (MG_MID) of Log10 LC50 (converted)): 57.5 µM
GI50 ([7]; nine non-small cell lung cancer cell lines, exposure at least 48 hrs, read-out: GI50, range over the panel): 1.6 to 3.55 µM
mean graph midpoint (MG_MID) of Log10 LC50 (Colon cancer cell lines; Colon panel, log of concentration leading to 50% net cell death): 4.68
GI50 (Colon cancer cell lines; Colon panel, log of concentration in mol/L causing 50% inhibition of net cell growth, read-out: mean graph midpoint (MG_MID) of Log10 GI50 (converted)): 2.34 µM
GI50 (Colon cancer cell lines; seven colon cancer cell lines, exposure at least 48 hrs, read-out: GI50, range over the panel): 1.23 to 13.7 µM
GI50 ([8]; Ovarian panel, log of concentration in mol/L causing 50% inhibition of net cell growth, read-out: mean graph midpoint (MG_MID) of Log10 GI50 (converted)): 2.04 µM
LC50 ([8]; Ovarian panel, log of concentration leading to 50% net cell death, read-out: mean graph midpoint (MG_MID) of Log10 LC50 (converted)): 46.8 µM
GI50 ([8]; six ovarian cancer cell lines, exposure at least 48 hrs, read-out: GI50, range over the panel): 0.99 to 4.21 µM
GI50 ([9]; Leukemia panel, log of concentration in mol/L causing 50% inhibition of net cell growth, read-out: mean graph midpoint (MG_MID) of Log10 GI50 (converted)): 0.794 µM
LC50 ([9]; Leukemia panel, log of concentration leading to 50% net cell death, read-out: mean graph midpoint (MG_MID) of Log10 LC50 (converted)): 87.1 µM
GI50 ([9]; two leukemia cancer cell lines (RPMI-8226 and K-562), exposure at least 48 hrs, read-out: GI50, range over the panel): 0.4 to 1.55 µM
